Data reported in ChEMBL document CHEMBL4828716, “Further investigation of harmicines as novel antiplasmodial agents: Synthesis, structure-activity relationship and insight into the mechanism of action” (Eur J Med Chem, 2021).
pIC50: −log10 of the molar value. Calls of active or inactive are those of the source. The calls are words filed in the database; no cut-off is given here.

How the values were obtained:
[1] = test system: HepG2; test: Cytotoxicity against human HepG2 cells assessed as cell growth inhibition incubated for 1 day by neutral red assay; format: functional, cell-based; details: HepG2, 24 h
[2] = Selectivity index, ratio of IC50 for human HepG2 cells to IC50 for […] erythrocytic stage Plasmodium falciparum 3D7; format: toxicity; details: read-out: Selectivity Index
[3] = test system: Plasmodium falciparum; test: Antiplasmodial activity against chloroquine-sensitive erythrocytic stage Plasmodium falciparum 3D7 assessed as inhibition of parasite growth incubated for 3 days by HRP2-ELISA; format: functional, organism-based; details: 3D7, 72 h
[4] = test system: Plasmodium falciparum; test: Antiplasmodial activity against chloroquine-resistant erythrocytic stage Plasmodium falciparum Dd2 assessed as inhibition of parasite growth incubated for 3 days by HRP2-ELISA; format: functional, organism-based; details: Dd2, 72 h
[5] = test system: Plasmodium berghei; test: Antiplasmodial activity against hepatic stage Plasmodium berghei infected in Huh-7 cells assessed as cell viability incubated for 1 hrs by bioluminescence assay; format: functional, organism-based; details: for pIC50: Huh-7, 1 h

| Compound | pIC50 [1] | selectivity ratio [2] | pIC50 [3] | pIC50 [4] | Activity [5] | pIC50 [5] |
| --- | --- | --- | --- | --- | --- | --- |
| Cc1nccc2c1[nH]c1ccc(OCc3cn(C/C=C/c4ccccc4)nn3)cc12 | 4.99 | 16.6 | 6.21 | 5.67 | Active | – |
| COc1ccc(/C=C/C(=O)NCc2nccc3c2[nH]c2ccccc23)cc1 | – | – | < 4.56 | < 4.56 | – | – |
| Cc1nccc2c1[nH]c1ccc(OCc3cn(C/C=C/c4cccc(Br)c4)nn3)cc12 | 5.21 | 23.6 | 6.59 | 6.14 | Active | – |
| Cc1nccc2c1[nH]c1ccc(OCCNC(=O)/C=C/c3ccc(C(F)(F)F)cc3)cc12 | 5.44 | 29.9 | 6.92 | 6.46 | Active | – |
| Cc1nc(CNC(=O)/C=C/c2cccc(C(F)(F)F)c2)cc2c1[nH]c1ccccc12 | 5.03 | 4.66 | 5.70 | 5.13 | Active | – |
| COc1ccc(/C=C/C(=O)OCc2cn(Cc3nccc4c3[nH]c3ccccc34)nn2)cc1 | – | – | < 4.26 | 4.41 | – | – |
| Cc1nc(CNC(=O)/C=C/c2cccc(F)c2)cc2c1[nH]c1ccccc12 | 4.80 | 2.76 | 5.24 | 4.90 | Active | – |
| Cc1nc(Cn2cc(COC(=O)/C=C/c3ccccc3)nn2)cc2c1[nH]c1ccccc12 | – | – | < 4.70 | < 4.56 | Active | – |
| O=C(/C=C/c1ccccc1)OCc1cn(Cc2nccc3c2[nH]c2ccccc23)nn1 | – | – | < 4.56 | < 4.69 | – | – |
| Cc1nccc2c1[nH]c1ccc(OCc3cn(C/C=C/c4ccc(Cl)cc4)nn3)cc12 | 5.40 | 6.93 | 6.24 | 6.02 | Active | – |
| Cc1nc(Cn2cc(COC(=O)/C=C/c3cccc(F)c3)nn2)cc2c1[nH]c1ccccc12 | – | – | < 4.56 | < 4.56 | Active | – |
| COc1ccc(/C=C/Cn2cc(COc3ccc4[nH]c5c(C)nccc5c4c3)nn2)cc1 | 4.06 | 147 | 6.22 | 5.74 | Active | – |
| Cc1nccc2c1[nH]c1ccc(OCCNC(=O)/C=C/c3ccc(F)cc3)cc12 | < 3.60 | > 263 | 6.02 | 5.78 | Active | – |
| COc1ccc(/C=C/C(=O)NCc2cc3c([nH]c4ccccc43)c(C)n2)cc1 | 4.98 | 1.6 | 5.19 | 4.97 | Active | – |
| Cc1nccc2c1[nH]c1ccc(OCCNC(=O)/C=C/c3cccc(Br)c3)cc12 | 5.12 | 39.8 | 6.72 | 6.20 | Active | – |
| O=C(/C=C/c1ccc(F)cc1)NCc1nccc2c1[nH]c1ccccc12 | – | – | < 4.86 | < 4.86 | – | – |
| O=C(/C=C/c1ccc(C(F)(F)F)cc1)NCc1nccc2c1[nH]c1ccccc12 | – | – | < 4.26 | < 4.26 | – | – |
| O=C(/C=C/c1cccc(Br)c1)OCc1cn(Cc2nccc3c2[nH]c2ccccc23)nn1 | – | – | < 4.88 | < 4.72 | – | – |
| Cc1nc(CO)cc2c3ccccc3n(Cc3cn(C/C=C/c4cccc(Br)c4)nn3)c12 | < 3.90 | > 19.9 | 5.20 | 4.73 | Active | – |
| COc1ccc2c(c1)[nH]c1c(C)nccc12 [HARMINE] | < 3.60 | 30 | – | < 4.56 | – | – |
| Cc1nccc2c1[nH]c1ccc(OCCNC(=O)/C=C/c3cccc(C(F)(F)F)c3)cc12 | 5.21 | 51.2 | 6.92 | 6.49 | Active | – |
| Cc1nc(CNC(=O)/C=C/c2ccccc2)cc2c1[nH]c1ccccc12 | 5.15 | 1.29 | 5.24 | 4.99 | Active | – |
| COc1ccc2c3ccnc(C)c3n(CCNC(=O)/C=C/c3ccc(C(F)(F)F)cc3)c2c1 | 5.23 | 146 | 7.40 | 6.77 | – | 5.08 |

| Compound | pIC50 [1] | selectivity ratio [2] | pIC50 [3] | pIC50 [4] | Activity [5] | pIC50 [5] |
| --- | --- | --- | --- | --- | --- | --- |
| O=C(/C=C/c1cccc(F)c1)NCc1nccc2c1[nH]c1ccccc12 | – | – | < 4.56 | < 4.56 | – | – |
| Cc1nccc2c1[nH]c1ccc(OCCNC(=O)/C=C/c3ccccc3)cc12 | 4.92 | 7.75 | 5.81 | 5.61 | Active | – |
| O=C(/C=C/c1cccc(C(F)(F)F)c1)NCc1nccc2c1[nH]c1ccccc12 | – | – | < 4.56 | < 4.56 | – | – |
| Cc1nccc2c1[nH]c1ccc(OCc3cn(C/C=C/c4cccc(F)c4)nn3)cc12 | 4.98 | 19.1 | 6.26 | 5.64 | Active | – |
| Cc1nc(CO)cc2c3ccccc3n(Cc3cn(C/C=C/c4ccc(Cl)cc4)nn3)c12 | – | – | < 4.70 | < 4.63 | Active | – |
| Cc1nccc2c1[nH]c1ccc(OCCNC(=O)/C=C/c3ccc(Cl)cc3)cc12 | < 3.60 | > 694 | 6.44 | 6.04 | Active | – |
| Cc1nc(CNC(=O)/C=C/c2ccc(Cl)cc2)cc2c1[nH]c1ccccc12 | 4.95 | 3.88 | 5.53 | 5.08 | Active | – |
| Cc1nc(CNC(=O)/C=C/c2ccc(F)cc2)cc2c1[nH]c1ccccc12 | 4.90 | 2.99 | 5.38 | 4.88 | Active | – |
| O=C(/C=C/c1ccccc1)NCc1nccc2c1[nH]c1ccccc12 | – | – | < 4.55 | < 4.26 | – | – |
| Cc1nc(Cn2cc(COC(=O)/C=C/c3cccc(Br)c3)nn2)cc2c1[nH]c1ccccc12 | 3.96 | 6.71 | 4.78 | 4.95 | Active | – |
| O=C(/C=C/c1cccc(Br)c1)NCc1nccc2c1[nH]c1ccccc12 | – | – | < 4.56 | < 4.56 | – | – |
| COc1ccc(/C=C/C(=O)OCc2cn(Cc3cc4c([nH]c5ccccc54)c(C)n3)nn2)cc1 | – | – | < 4.56 | < 4.56 | Active | – |
| Cc1nc(CNC(=O)/C=C/c2cccc(Br)c2)cc2c1[nH]c1ccccc12 | 5.02 | 2.98 | 5.49 | 5.83 | Active | – |
| Cc1nccc2c1[nH]c1ccc(OCCNC(=O)/C=C/c3cccc(F)c3)cc12 | 4.43 | 33.9 | 5.95 | 5.89 | Active | – |
| COc1ccc2c3ccnc(C)c3n(CCNC(=O)/C=C/c3cccc(C(F)(F)F)c3)c2c1 | 4.18 | 1110 | 7.22 | 6.48 | – | 5.72 |
| O=C(/C=C/c1cccc(F)c1)OCc1cn(Cc2nccc3c2[nH]c2ccccc23)nn1 | – | – | < 4.76 | < 4.70 | – | – |
| O=C(/C=C/c1ccc(Cl)cc1)NCc1nccc2c1[nH]c1ccccc12 | – | – | < 4.56 | < 4.56 | – | – |
| Cc1nc(CO)cc2c3ccccc3n(Cc3cn(C/C=C/c4ccccc4)nn3)c12 | – | – | < 4.56 | < 4.70 | Active | – |
| COc1ccc(/C=C/C(=O)NCCOc2ccc3[nH]c4c(C)nccc4c3c2)cc1 | < 3.60 | > 214 | 5.93 | 5.54 | Active | – |
| O=C(/C=C/c1ccc(Cl)cc1)OCc1cn(Cc2nccc3c2[nH]c2ccccc23)nn1 | – | – | < 4.26 | < 4.26 | – | – |
| Cc1nc(Cn2cc(COC(=O)/C=C/c3ccc(Cl)cc3)nn2)cc2c1[nH]c1ccccc12 | 4.15 | 3.29 | 4.67 | < 4.56 | Active | – |
| COc1ccc(/C=C/Cn2cc(Cn3c4ccccc4c4cc(CO)nc(C)c43)nn2)cc1 | – | – | 4.74 | < 4.77 | Active | – |
| Cc1nc(CNC(=O)/C=C/c2ccc(C(F)(F)F)cc2)cc2c1[nH]c1ccccc12 | 4.48 | 14.5 | 5.64 | 5.22 | Active | – |
